According to patent US9452980B2, “Substituted benzamides” (Hoffmann-La Roche Inc., priority 2009, dated 2016):
Counter-ions that a name gives are not always drawn. Like-named read-outs stand apart in the source and are kept apart here.

Experiments:
[1] = target: mouse TAAR1 (Mus musculus (Mouse), UniProt Q923Y8); test: Radioligand binding assay on mouse TAAR1
Procedure, shortened: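 Displacement of the tritiated oxazol-2-ylamine radioligand was measured by filtration and scintillation counting after 1 h incubation at 4 °C. Test concentrations ran 10 pM–10 μM in duplicate, with 10 μM cold ligand giving nonspecific binding. The receptor source was membranes of a stable mouse TAAR1 HEK293 line.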

[2] = target: rat TAAR1 (Rattus norvegicus (Rat), UniProt Q923Y9); test: Radioligand binding assay on rat TAAR1
Procedure, shortened: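 Membranes from HEK293 cells stably expressing rat TAAR1, with Kd checked per batch by saturation. Competition with ³H-(S)-4-[(ethyl-phenyl-amino)-methyl]-4,5-dihydro-oxazol-2-ylamine, compounds 10 pM–10 μM in duplicate, 1 hr at 4 °C. Filtration then scintillation counting; nonspecific binding defined with 10 μM unlabeled ligand.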

[3] = mouse TAAR1, HEK-293 membranes, first value of cell mouse/rat, read-out: Ki (μM) mouse
[4] = rat TAAR1, HEK-293 membranes, second value of cell mouse/rat, read-out: Ki (μM) rat

Chain of rat TAAR1 (Q923Y9 whole entry): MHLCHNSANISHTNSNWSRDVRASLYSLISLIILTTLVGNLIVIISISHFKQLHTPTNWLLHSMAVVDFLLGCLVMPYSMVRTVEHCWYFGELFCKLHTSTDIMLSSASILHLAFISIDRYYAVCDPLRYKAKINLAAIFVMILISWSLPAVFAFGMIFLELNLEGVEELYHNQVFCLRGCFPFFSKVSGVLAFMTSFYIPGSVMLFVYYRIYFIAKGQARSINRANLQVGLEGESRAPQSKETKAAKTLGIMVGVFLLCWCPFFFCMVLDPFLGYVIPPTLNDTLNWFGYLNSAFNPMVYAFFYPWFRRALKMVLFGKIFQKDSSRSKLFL
Chain of mouse TAAR1 (Q923Y8 whole entry): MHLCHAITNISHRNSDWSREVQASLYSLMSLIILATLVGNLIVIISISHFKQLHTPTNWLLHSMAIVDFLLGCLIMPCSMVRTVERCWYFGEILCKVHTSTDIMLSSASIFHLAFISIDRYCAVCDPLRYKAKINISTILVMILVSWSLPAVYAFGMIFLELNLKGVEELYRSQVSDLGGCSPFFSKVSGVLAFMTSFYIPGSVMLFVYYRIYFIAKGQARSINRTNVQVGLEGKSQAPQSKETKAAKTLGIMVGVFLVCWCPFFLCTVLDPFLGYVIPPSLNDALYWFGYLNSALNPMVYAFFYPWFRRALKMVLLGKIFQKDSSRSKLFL

Row | SMILES | Ki [1, 3] [µM] | Ki [2, 4] [µM] | Ki [1] [µM] | Ki [2] [µM] | Ki ([1]; read-out: Ki (μM) mouse) [µM]
1 | O=C(Nc1ccc(C2CCNC2)cc1)OC(c1ccc(Cl)cc1)C(F)(F)F (racemic) [Example 130, (RS)-(4-Pyrrolidin-3-yl-phenyl)-carbamic acid (RS)-1-(4-chloro-phenyl)-2,2,2-trifluoro-ethyl ester] | 0.0017 | 0.0169 |  |  | 
2 | O=C(Nc1ccc(CCC2CCNC2)cc1)c1ncccc1F (racemic) [Example 132, (RS)-3-Fluoro-pyridine-2-carboxylic acid [4-(2-pyrrolidin-3-yl-ethyl)-phenyl]-amide hydrochloride] | 9.99 | 0.141 |  |  | 
3 | O=C(Nc1ccc(CCC2CCNC2)cc1)c1ncc(F)cc1F (racemic) [Example 133, (RS)-3,5-Difluoro-pyridine-2-carboxylic acid [4-(2-pyrrolidin-3-yl-ethyl)-phenyl]-amide hydrochloride] | 1.52 | 0.0174 |  |  | 
4 | O=C(Nc1ccc(CCC2CCCNC2)cc1)c1ncccc1F (racemic) [Example 134, (RS)-3-Fluoro-pyridine-2-carboxylic acid [4-(2-piperidin-3-yl-ethyl)-phenyl]-amide hydrochloride] | 2.06 | 0.106 |  |  | 
5 | O=C(Nc1ccc(C(=O)C2CCNC2)cc1)c1ccc(Cl)cc1 (racemic) [Example 136, (RS)-4-Chloro-N-[4-(pyrrolidine-3-carbonyl)-phenyl]-benzamide hydrochloride] |  |  | 0.153 | 0.0008 | 
6 | CCCc1ccc(C(=O)Nc2ccc(C3CCCNC3)cc2)cc1 (racemic) [Example 137, (RS)—N-(4-Piperidin-3-yl-phenyl)-4-propyl-benzamide hydrochloride] | 0.0062 | 0.0015 |  |  | 
7 | O=C(Nc1ccc(C2CCNC2)cc1)c1ccc(C(F)(F)F)cn1 (racemic) [Example 139, (RS)-5-Trifluoromethyl-pyridine-2-carboxylic acid (4-pyrrolidin-3-yl-phenyl)-amide hydrochloride] | 0.0158 | 0.0051 |  |  | 
8 | O=C(Nc1ccc(C2CNCCO2)cc1)c1ccc(Cl)cc1F (racemic) [Example 146, (RS)-4-Chloro-2-fluoro-N-(4-morpholin-2-yl-phenyl)-benzamide hydrochloride] |  | 0.001 |  |  | 0.0268
9 | O=C(Nc1ccc(CCC2CCCN2)cc1)c1ccc(Cl)c(Cl)c1 (racemic) [Example 154, (RS)-3,4-Dichloro-N-[4-(2-pyrrolidin-2-yl-ethyl)-phenyl]-benzamide hydrochloride] | 0.0082 | 0.0002 |  |  | 
10 | O=C(Nc1ccc(C2CCCCN2)cc1)c1ccc(Cl)cc1 (racemic) [Example 159, (RS)-4-Chloro-N-(4-piperidin-2-yl-phenyl)-benzamide hydrochloride] | 6.38 | 0.63 |  |  | 
11 | O=C(Nc1ccc(C2CCCNC2)cc1)c1cnc(Cl)cn1 (racemic) [Example 160, (RS)-5-Chloro-pyrazine-2-carboxylic acid (4-piperidin-3-yl-phenyl)-amide hydrochloride] | 0.0851 | 0.0046 |  |  | 

The next lines start with results.

Row | Ki [1, 3] [µM] | Ki [2, 4] [µM] | SMILES | Ki [1] [µM] | Ki [2] [µM] | Ki ([1]; read-out: Ki (μM) mouse) [µM]
12 | 0.0003 | 0.0011 | O=C(Nc1ccc(C2CCNC2)cc1)OCCc1ccc(C(F)(F)F)cc1 (racemic) [Example 122, (RS)-(4-Pyrrolidin-3-yl-phenyl)-carbamic acid 2-(4-trifluoromethyl-phenyl)-ethyl ester] |  |  | 
13 | 0.0014 | 0.0022 | O=C(Nc1ccc(C2CCNC2)cc1)OCCc1cccc(C(F)(F)F)c1 (racemic) [Example 123, (RS)-(4-Pyrrolidin-3-yl-phenyl)-carbamic acid 2-(3-trifluoromethyl-phenyl)-ethyl ester] |  |  | 
14 | 0.0013 | 0.0036 | O=C(Nc1ccc(C2CCNC2)cc1)OCCc1cc(F)ccc1F (racemic) [Example 124, (RS)-(4-Pyrrolidin-3-yl-phenyl)-carbamic acid 2-(2,5-difluoro-phenyl)-ethyl ester] |  |  | 
15 | 0.0019 | 0.0022 | O=C(Nc1ccc(C2CCNC2)cc1)OCCc1ccc(Cl)c(Cl)c1 (racemic) [Example 126, (RS)-(4-Pyrrolidin-3-yl-phenyl)-carbamic acid 2-(3,4-dichloro-phenyl)-ethyl ester] |  |  | 
16 | 0.0006 | 0.002 | CC(OC(=O)Nc1ccc(C2CCNC2)cc1)c1ccc(Cl)cc1 (racemic) [Example 127, (RS)-(4-Pyrrolidin-3-yl-phenyl)-carbamic acid (RS)-1-(4-chloro-phenyl)-ethyl ester] |  |  | 
17 | 0.0003 | 0.0003 | O=C(Nc1ccc(C2CCNC2)cc1)OCCCc1ccc(Cl)cc1 (racemic) [Example 128, (RS)-(4-Pyrrolidin-3-yl-phenyl)-carbamic acid 3-(4-chloro-phenyl)-propyl ester] |  |  | 
18 | 1.27 | 0.0134 | O=C(Nc1ccc(CCC2CCCNC2)cc1)c1ncc(F)cc1F (racemic) [Example 135, (RS)-3,5-Difluoro-pyridine-2-carboxylic acid [4-(2-piperidin-3-yl-ethyl)-phenyl]-amide hydrochloride] |  |  | 
19 | 0.035 | 0.0059 | O=C(Nc1ccc(C2CCCNC2)cc1)c1ccc(C(F)(F)F)cn1 (racemic) [Example 138, (RS)-5-Trifluoromethyl-pyridine-2-carboxylic acid (4-piperidin-3-yl-phenyl)-amide hydrochloride] |  |  | 
20 | 0.245 | 0.0358 | O=C(Nc1ccc(C2CCNC2)nc1)c1ccc(Cl)cc1 (racemic) [Example 140, (RS)-4-Chloro-N-(6-pyrrolidin-3-yl-pyridin-3-yl)-benzamide] |  |  | 
21 | 0.0201 | 0.0024 | O=C(Nc1ccc(C2CNCCO2)cc1)c1ccc(C(F)(F)F)cn1 (racemic) [Example 141, (RS)-5-Trifluoromethyl-pyridine-2-carboxylic acid (4-morpholin-2-yl-phenyl)-amide hydrochloride] |  |  | 
22 | 0.0126 | 0.0004 | O=C(Nc1ccc(CCC2CCCN2)cc1)c1ccc(Cl)cc1 (racemic) [Example 142, (RS)-4-Chloro-N-[4-(2-pyrrolidin-2-yl-ethyl)-phenyl]-benzamide hydrochloride] |  |  | 
23 | 0.0011 | 0.001 | O=C(Nc1ccc(CC2CCNC2)cc1)c1ccc(Cl)cc1 (racemic) [Example 149, (RS)-4-Chloro-N-(4-pyrrolidin-3-ylmethyl-phenyl)-benzamide hydrochloride] |  |  | 
24 | 0.0107 | 0.0009 | O=C(Nc1ccc(CCC2CCCN2)cc1)c1ccc(C(F)(F)F)cc1 (racemic) [Example 155, (RS)—N-[4-(2-Pyrrolidin-2-yl-ethyl)-phenyl]-4-trifluoromethyl-benzamide hydrochloride] |  |  | 
25 | 0.153 | 0.002 | O=C(Nc1ccc(CCC2CCCN2)cc1)c1ccc(F)cc1 (racemic) [Example 156, (RS)-4-Fluoro-N-[4-(2-pyrrolidin-2-yl-ethyl)-phenyl]-benzamide hydrochloride] |  |  | 
26 | 0.142 | 0.0007 | O=C(Nc1ccc(CCC2CCCN2)cc1)c1cccc(Cl)c1 (racemic) [Example 157, (RS)-3-Chloro-N-[4-(2-pyrrolidin-2-yl-ethyl)-phenyl]-benzamide] |  |  | 
27 | 0.0326 | 0.0014 | CCOc1ccc(C(=O)Nc2ccc(CCC3CCCN3)cc2)cc1 (racemic) [Example 158, (RS)-4-Ethoxy-N-[4-(2-pyrrolidin-2-yl-ethyl)-phenyl]-benzamide hydrochloride] |  |  | 
